The target of one assay is T1, Kir6.2 channel (Mus musculus, UniProt Q61743).
T1 construct: expressed in transfected cells; host or cells: Neuro2A (N2A) cells, transient transfection with pcDNA3.1-Kir6.2 (gift of Dr. Toru Ishizuka, Tohoku University)
T1 sequence (Q61743 1-390): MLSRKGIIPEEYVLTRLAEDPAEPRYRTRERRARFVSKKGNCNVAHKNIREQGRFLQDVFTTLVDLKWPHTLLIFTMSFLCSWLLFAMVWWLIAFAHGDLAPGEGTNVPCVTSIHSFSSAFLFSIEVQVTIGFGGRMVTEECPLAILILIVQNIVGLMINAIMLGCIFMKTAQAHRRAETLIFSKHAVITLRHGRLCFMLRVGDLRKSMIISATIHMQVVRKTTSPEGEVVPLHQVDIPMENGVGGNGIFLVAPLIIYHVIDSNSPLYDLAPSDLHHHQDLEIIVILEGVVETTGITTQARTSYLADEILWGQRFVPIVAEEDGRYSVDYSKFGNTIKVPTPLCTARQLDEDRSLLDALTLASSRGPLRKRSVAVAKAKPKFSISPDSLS
Put plainly: Calcium imaging method (Fura2) in Kir6.2 channel-overexpressing cells. In kind it is cell-based. How it is done: Using the same Kir6.2 channel-overexpressing cells as in Test Example 1, the amount of calcium that flows into cells from outside the cells by TP-014 treatment was measured by a calcium imaging method. The calcium imaging method is a method of measuring the amount of calcium based on the intensity of fluorescence of cultured nerve cells, which are treated in a culture solution containing a calcium fluorescent dye (Fura2, manufactured by Dojindo Laboratories) in a concentration of 4 μM. Imaging was carried out by an imaging apparatus (LAMBDA10-2, manufactured by SUTTER INSTRUMENT) in accordance with the manual attached to the apparatus.

Assay [1] concerns APP23 mice. Kind of assay: Y-maze method in Alzheimer's disease model mice. In kind it is in vivo. As to conditions: APP23 mice 12 months old, 1 mg/kg orally once a day for two months. As to the method:
To Alzheimer's disease model mice (APP23 mice, Sturchler-Pierrat et al., Proc. Natl. Acad. Sci. U.S.A. 1997, 94, 13287-13292)(12 months old), TP-014 (1 mg/kg) was orally administered once a day for two months (chronic treatment). […] FIGS. 4a-d show the results of behavior analysis. FIG. 4a and FIG. 4b show attentional function analyzed on WT mice (C57BL/6J, Japan SLC) and APP23 mice (n=5 per group) by an ordinary Y-maze method. […] The Y-maze method is a method of allowing mice to freely walk on three arms for 8 minutes. The arms will be provisionally designated as A, B, C, respectively. A mouse positioned on A will move to B or C (arm). […] The arms to which a mouse moved are recorded in chronological order and the number of times a mouse moves to each of the arms within a predetermined time is counted and determined as “total arm entries”. Of them, the number of the right-answer cases (the case where a mouse consecutively chooses three different arms) was counted and determined as the number of alternating behaviors (“No. of alternation”). The ratio of “No. of alternation” to the number obtained by subtracting 2 from the “total arm entries” is expressed as alternation (%) and used as the normal alternate behavior index (spatial working memory correct answer ratio). […]

For assay [2], the system named is APP23 mice. Kind of assay: Fear conditioning test in Alzheimer's disease model mice. In kind it is in vivo. The note with it: APP23 mice treated for two months. An excerpt: The fear conditioning test method is an analysis taking an advantage of mouse's preposition in favor of a dark place rather than a bright place. Day 1, a mouse is placed in a bright place. Since a mouse is fond of a dark place, the mouse enters a dark place (dark box). When an electrical stimulation is given to the mouse at this time, the mouse is surprised and returns to the bright place and never enters the dark place. Day 2, the mouse is placed in the bright place (the same place as on Day 1), and then, whether the mouse enters a dark place or not is observed for 5 minutes. If the mouse enters the dark place right away, it is determined that fear memory of the mouse declined. “Latency” is a time period (seconds) until the mouse placed in a bright place enters the dark plate (darkroom) on Day 2.

For assay [3], the system named is APP23 mice. Put plainly: Aβ aggregation in brain slices, staining with 6E10 and thioflavin. In kind it is in vivo. The note with it: APP23 mice (14 months old), chronic treatment, brain slice sections. An excerpt:
The hypothesis that amyloid-β (Aβ) is a cause of Alzheimer's disease has now still important. AP aggregation, which occurs in APP23 mice (14 months old) was confirmed by immunostaining. The brains of a WT (control mouse) and APP23 mouse were cut into slice sections of 50 micrometers in thickness. The slice sections were stained with 6E10 (Aβ antibody, manufactured by Abeam) and thioflavin. The conditions other than the above were the same as in the ordinary immunostaining method. […] In contrast, aggregation was not virtually observed in the hippocampus (CA1). Aβ aggregation was inhibited by TP-014 chronic treatment.

In the next assay the test system is ob/ob. Put plainly: Hypoglycemic effect, blood glucose level by assay kit. In kind it is in vivo. The note with it: 1 mg/kg chronic treatment for 4 weeks; effect on and after 3 weeks; vs ob/ob (saline). How it is done:
A hypoglycemic effect by TP-014 was checked by measuring the blood glucose level by an assay kit (manufactured by Technicon International co). The measurement was carried out for 4 weeks. […] As a control, tolbutamide was used. Kir6.2 channel binds to SUR1 ([…]) on the cell membrane to form a channel. Action mechanism is considered due to Kir6.2 channel inhibitory action. Tolbutamide binds to SUR1 to inhibit Kir6.2 channel.

SMILES strings stand for the structures.

`O=C(N[C@@H](c1ccccc1)[C@H]1[C@H]2C[C@@H]3C[C@](Cl)(C2)C[C@@]1(OC(=O)C(F)(F)F)C3)C(F)(F)F` [TP-014, (1S,2R,3S,5S,7S)-5-chloro-2-((R)-phenyl(2,2,2-trifluoroacetamido)methyl)adamantan-1-yl 2,2,2-trifluoroacetate]: the “calcium concentration increasing effect compared with memantine” value at Kir6.2 channel (TP-014 1-100 nM vs memantine 100 nM) is “larger calcium concentration increasing effect than memantine”. In addition, at Kir6.2 channel (TP-014 1-100 nM, 4 minutes after treatment, Kir6.2 channel-overexpressing cells), the “amount of calcium within cells” value is “significantly increased”. Further, the “attentional function (alternation, Y-maze)” value in the assay on APP23 mice [1] is reported as “significant attentional function improvement effect”. Also, in the assay with APP23 mice [2], the “fear memory (latency, fear conditioning test)” value is recorded as “improvement effect”. Also, in the assay with APP23 mice [3], the Aβ aggregation entry is “inhibited”. For the same compound, the blood glucose level entry in the assay with ob/ob is recorded as “significantly decreased”.

The values are drawn from patent US10487045B2, “Adamantane derivative and use thereof” (TOHOKU UNIVERSITY, priority 2016, dated 2019).
